{
  "source": "paper PMC8760490",
  "about": "“Discovery of novel furanylbenzamide inhibitors that target oncogenic tyrosine phosphatase SHP2 in leukemia cells” (The Journal of Biological Chemistry, 2021)",
  "molecular_target": "T1, SHP2cat (Homo sapiens, UniProt Q06124)",
  "T1 construct": "the SHP2 catalytic domain (SHP2cat; residues 248–527); made in house",
  "T1 sequence (Q06124 248-527)": "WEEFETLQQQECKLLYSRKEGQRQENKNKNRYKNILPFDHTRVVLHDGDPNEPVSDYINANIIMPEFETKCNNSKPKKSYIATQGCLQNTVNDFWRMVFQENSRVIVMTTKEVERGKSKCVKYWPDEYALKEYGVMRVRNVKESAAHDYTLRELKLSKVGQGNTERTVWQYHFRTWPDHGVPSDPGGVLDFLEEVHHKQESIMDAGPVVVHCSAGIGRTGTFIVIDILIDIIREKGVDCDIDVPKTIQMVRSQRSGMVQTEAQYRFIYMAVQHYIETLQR",
  "assay": "OMFP fluorescence phosphatase inhibition assay, SHP2cat",
  "assay_type": "biochemical",
  "details": "substrate OMFP at Km (50 μM); read-out: IC50 against SHP2cat with OMFP",
  "source_text": "We confirmed specific and dose-dependent binding of inhibitors to SHP2 by PTS, which monitors the thermal stability of a target protein in vitro ([40]). […] In addition, we confirmed the inhibitory activity of several furanylbenzamide inhibitors, including the top two compounds SBI-2130 and SBI-4668, in SHP2cat inhibition assays using the alternative substrate 3-O-methylfluorescein phosphate (OMFP), which features a peak fluorescence emission that is red-shifted by ∼75 nm compared with DiFMUP. The Km value of OMFP for SHP2cat was determined to be 50 μM. An OMFP fluorescence intensity–based assay was used to perform inhibitor dose–response experiments and determine IC50 values.\nSHP2 inhibitors were tested at RT in a 384-well plate format standard phosphatase fluorescence intensity assay using DiFMUP (Invitrogen/Thermo Fisher Scientific) as a substrate and a total reaction volume of 25 μl. […] Fluorescence intensity was measured in kinetic mode (every minute for 7 or 10 min) using a Tecan Spark Multimode Microplate Reader (Tecan) with an excitation wavelength of 360 nm and an emission wavelength of 460 nm. The initial rates were determined from the linear progression curves of the PTP reaction. […] IC50 values were calculated from the corrected initial rates by nonlinear regression using the program GraphPad Prism, version 8 (GraphPad Software, Inc) software. […]",
  "data": [
    {"smiles": "Nc1ccc(NC(=O)c2cc(-c3ccc(/C=C4\\Sc5ccccc5C4=O)o3)ccc2O)cc1", "note": "[SBI-2130, (Z)-N-(4-Aminophenyl)-2-hydroxy-5-(5-((3-oxobenzo[b]thiophen-2(3H)-ylidene)methyl)furan-2-yl)benzamide]", "values": [
      {"measurement": "IC50", "value": 440, "unit": "nM"}
    ]},
    {"smiles": "O=C(Nc1ccccc1)c1cc(-c2ccc(/C=C3\\Sc4ccccc4C3=O)o2)ccc1O", "note": "[SBI-4668, (Z)-2-Hydroxy-5-(5-((3-oxobenzo[b]thiophen-2(3H)-ylidene)methyl)furan-2-yl)-N-phenylbenzamide]", "values": [
      {"measurement": "IC50", "value": 1200, "unit": "nM"}
    ]}
  ]
}
